Like-named read-outs stand apart in the source and are kept apart here.
Tests used:
Assay type in all cases: binding
[1] = molecular target: T1, HeLa cell extract proteins (Homo sapiens, UniProt Q13347)
T1 construct: endogenous in cells; host or cells: HeLa cell extract

[2] = molecular target: T2, HeLa cell extract proteins (Homo sapiens, UniProt P61619)
T2 construct: endogenous in cells; host or cells: HeLa cell extract

[3] = molecular target: T3, HeLa cell extract proteins (Homo sapiens, UniProt Q14247)
T3 construct: endogenous in cells; host or cells: HeLa cell extract
T3 sequence (Q14247 1-550): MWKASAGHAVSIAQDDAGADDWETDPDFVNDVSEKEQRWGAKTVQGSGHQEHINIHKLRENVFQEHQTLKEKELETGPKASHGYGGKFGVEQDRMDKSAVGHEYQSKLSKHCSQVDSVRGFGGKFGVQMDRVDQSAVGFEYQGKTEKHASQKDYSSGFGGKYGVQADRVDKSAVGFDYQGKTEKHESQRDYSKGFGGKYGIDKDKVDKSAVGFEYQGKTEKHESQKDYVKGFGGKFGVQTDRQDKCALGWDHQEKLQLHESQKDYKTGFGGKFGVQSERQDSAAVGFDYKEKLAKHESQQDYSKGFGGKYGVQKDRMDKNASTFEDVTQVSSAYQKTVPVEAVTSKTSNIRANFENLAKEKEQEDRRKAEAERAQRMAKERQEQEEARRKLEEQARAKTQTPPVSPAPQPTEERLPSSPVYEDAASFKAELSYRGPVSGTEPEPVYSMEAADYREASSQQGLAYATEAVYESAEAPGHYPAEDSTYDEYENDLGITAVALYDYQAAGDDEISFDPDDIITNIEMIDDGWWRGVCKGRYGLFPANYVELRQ

[4] = molecular target: T4, HeLa cell extract proteins (Homo sapiens, UniProt Q15437)
T4 construct: endogenous in cells; host or cells: HeLa cell extract

[5] = molecular target: T5, HeLa cell extract proteins (Homo sapiens, UniProt P18206)
T5 construct: endogenous in cells; host or cells: HeLa cell extract
T5 sequence (P18206 1-1134): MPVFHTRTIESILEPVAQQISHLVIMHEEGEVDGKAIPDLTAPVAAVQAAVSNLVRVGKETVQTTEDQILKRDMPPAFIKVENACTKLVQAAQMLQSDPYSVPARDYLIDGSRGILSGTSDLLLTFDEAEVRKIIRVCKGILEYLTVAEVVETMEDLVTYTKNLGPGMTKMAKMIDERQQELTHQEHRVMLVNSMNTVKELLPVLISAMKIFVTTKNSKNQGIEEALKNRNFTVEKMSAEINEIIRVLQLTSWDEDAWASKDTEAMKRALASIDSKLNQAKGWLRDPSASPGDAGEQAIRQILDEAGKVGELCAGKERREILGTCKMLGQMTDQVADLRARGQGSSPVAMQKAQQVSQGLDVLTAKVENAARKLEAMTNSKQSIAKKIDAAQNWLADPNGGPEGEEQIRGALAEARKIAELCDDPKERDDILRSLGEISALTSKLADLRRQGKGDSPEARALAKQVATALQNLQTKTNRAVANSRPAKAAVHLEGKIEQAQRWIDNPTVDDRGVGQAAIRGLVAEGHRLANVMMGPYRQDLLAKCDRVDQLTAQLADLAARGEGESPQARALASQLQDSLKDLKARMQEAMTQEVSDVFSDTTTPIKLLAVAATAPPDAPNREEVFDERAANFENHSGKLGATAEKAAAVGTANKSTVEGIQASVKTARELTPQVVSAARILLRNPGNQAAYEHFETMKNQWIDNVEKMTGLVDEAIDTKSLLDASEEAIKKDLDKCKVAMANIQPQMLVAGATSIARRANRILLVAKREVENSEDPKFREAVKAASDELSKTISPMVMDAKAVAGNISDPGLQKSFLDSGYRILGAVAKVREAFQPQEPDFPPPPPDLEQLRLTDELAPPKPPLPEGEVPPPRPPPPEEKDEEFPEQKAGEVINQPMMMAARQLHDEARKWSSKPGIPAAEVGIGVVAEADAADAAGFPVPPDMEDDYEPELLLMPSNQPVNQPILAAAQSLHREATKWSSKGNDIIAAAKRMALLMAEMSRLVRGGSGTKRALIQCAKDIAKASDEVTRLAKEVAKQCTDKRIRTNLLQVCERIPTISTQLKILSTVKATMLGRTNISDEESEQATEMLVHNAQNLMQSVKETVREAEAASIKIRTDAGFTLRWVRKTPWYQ

[6] = molecular target: T6, HeLa cell extract proteins (Homo sapiens, UniProt P07686)
T6 construct: endogenous in cells; host or cells: HeLa cell extract
T6 sequence (P07686 122-556): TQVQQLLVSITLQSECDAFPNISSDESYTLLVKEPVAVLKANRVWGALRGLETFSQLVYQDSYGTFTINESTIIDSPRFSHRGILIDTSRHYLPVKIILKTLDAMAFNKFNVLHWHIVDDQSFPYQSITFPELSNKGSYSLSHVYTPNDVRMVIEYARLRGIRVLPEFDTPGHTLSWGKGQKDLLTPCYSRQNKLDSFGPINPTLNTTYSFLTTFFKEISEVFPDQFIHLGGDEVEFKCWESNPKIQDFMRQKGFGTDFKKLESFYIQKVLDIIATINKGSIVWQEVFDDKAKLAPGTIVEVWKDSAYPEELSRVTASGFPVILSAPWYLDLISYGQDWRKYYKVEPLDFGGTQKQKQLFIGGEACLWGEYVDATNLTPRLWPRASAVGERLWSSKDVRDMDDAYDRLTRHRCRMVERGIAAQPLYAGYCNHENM

T1 sequence (Q13347 whole entry): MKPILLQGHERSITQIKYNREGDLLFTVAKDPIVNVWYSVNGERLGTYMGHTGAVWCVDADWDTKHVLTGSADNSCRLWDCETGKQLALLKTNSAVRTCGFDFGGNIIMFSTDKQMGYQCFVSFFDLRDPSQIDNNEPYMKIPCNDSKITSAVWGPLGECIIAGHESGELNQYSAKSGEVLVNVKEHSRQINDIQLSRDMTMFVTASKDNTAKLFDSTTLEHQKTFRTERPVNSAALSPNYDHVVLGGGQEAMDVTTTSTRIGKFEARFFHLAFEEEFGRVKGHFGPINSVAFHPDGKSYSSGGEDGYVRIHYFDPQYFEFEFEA
T2 sequence (P61619 whole entry): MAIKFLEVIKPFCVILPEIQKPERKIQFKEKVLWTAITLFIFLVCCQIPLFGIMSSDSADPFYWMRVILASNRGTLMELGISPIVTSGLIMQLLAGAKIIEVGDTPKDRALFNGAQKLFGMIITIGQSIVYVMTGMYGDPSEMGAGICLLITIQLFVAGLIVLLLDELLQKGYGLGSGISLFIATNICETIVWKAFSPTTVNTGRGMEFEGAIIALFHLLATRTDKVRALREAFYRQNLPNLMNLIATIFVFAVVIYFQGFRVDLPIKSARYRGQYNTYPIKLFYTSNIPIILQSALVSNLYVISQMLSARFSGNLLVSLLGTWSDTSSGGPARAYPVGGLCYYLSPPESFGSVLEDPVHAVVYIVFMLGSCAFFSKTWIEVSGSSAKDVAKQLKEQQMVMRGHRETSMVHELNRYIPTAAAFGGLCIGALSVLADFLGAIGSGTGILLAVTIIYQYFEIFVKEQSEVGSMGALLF
T4 sequence (Q15437 whole entry): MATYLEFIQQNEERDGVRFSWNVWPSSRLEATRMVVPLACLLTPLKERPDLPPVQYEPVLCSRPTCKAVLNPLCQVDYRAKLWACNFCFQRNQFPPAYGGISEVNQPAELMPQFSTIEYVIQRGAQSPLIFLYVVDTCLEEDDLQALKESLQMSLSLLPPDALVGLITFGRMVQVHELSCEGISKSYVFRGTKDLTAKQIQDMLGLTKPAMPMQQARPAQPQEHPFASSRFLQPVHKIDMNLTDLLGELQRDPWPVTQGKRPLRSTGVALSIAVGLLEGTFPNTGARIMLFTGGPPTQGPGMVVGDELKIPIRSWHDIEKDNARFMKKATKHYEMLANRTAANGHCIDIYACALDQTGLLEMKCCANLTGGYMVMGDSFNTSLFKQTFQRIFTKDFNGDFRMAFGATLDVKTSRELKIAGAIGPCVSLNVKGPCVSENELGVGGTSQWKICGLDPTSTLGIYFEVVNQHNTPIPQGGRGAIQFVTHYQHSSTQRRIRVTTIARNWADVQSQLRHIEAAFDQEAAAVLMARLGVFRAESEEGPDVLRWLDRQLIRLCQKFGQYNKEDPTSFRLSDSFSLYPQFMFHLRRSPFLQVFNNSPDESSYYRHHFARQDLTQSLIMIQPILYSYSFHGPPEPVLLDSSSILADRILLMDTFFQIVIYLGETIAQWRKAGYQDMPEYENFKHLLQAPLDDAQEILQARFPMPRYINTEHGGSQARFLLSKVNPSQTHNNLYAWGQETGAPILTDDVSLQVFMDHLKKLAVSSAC

Q: Which “fold changes relative to vehicle control” value ([1]; HeLa, captured protein EIF3I) does the source give for `Nc1nc2c(c(=O)[nH]1)N(C=O)C(CNc1ccc(C(=O)N[C@@H](CCC(=O)O)C(=O)O)cc1)CN2` (stereo partly drawn) [LEU, leucovorin] here?
A: The value was 1.06.

Q: And the “fold changes relative to vehicle control” value ([2]; HeLa, protein SEC61A1)?
A: Its value is 0.99.

Q: And the “fold changes relative to vehicle control” value ([3]; HeLa, captured protein CTTN)?
A: The value was 0.99.

Q: And the “fold changes relative to vehicle control” value ([4]; HeLa, protein SEC23B)?
A: The value was 0.98.

Q: What about the “fold changes relative to vehicle control” value ([5]; protein VCL, HeLa) of the same compound?
A: Its value is 0.98.

Q: What about the “fold changes relative to vehicle control” value ([6]; HeLa, protein HEXB) of the same compound?
A: Its value is 0.97.

Q: With `Nc1nc2[nH]cc(CCc3ccc(C(=O)N[C@@H](CCC(=O)O)C(=O)O)cc3)c2c(=O)[nH]1` [PTX, pemetrexed] as the compound, how does the “fold changes relative to vehicle control” value [1] read?
A: The value was 1.06.

Q: And the “fold changes relative to vehicle control” value [2]?
A: Its value is 0.98.

Q: What about the “fold changes relative to vehicle control” value [3] of the same compound?
A: The value was 0.97.

Q: And the “fold changes relative to vehicle control” value [4]?
A: The value was 0.91.

Q: What about the “fold changes relative to vehicle control” value [5] of the same compound?
A: Its value is 1.06.

Q: What about the “fold changes relative to vehicle control” value [6] of the same compound?
A: The value was 1.

Q: What does the source list for `CCCCCCOc1ccc(Cc2cnc(N)nc2N)cc1` [compound 1]?
A: fold changes relative to vehicle control ([1]; protein EIF3I, HeLa): 0.96; fold changes relative to vehicle control ([2]; HeLa, protein SEC61A1): 1.02; fold changes relative to vehicle control ([3]; protein CTTN, HeLa): 1.04; fold changes relative to vehicle control ([4]; HeLa, protein SEC23B): 1.01; fold changes relative to vehicle control ([5]; protein VCL, HeLa): 1.12; fold changes relative to vehicle control ([6]; HeLa, protein HEXB): 1.04

Q: For `CCCCCCOc1cccc(Cc2cnc(N)nc2N)c1` [compound 2], which “fold changes relative to vehicle control” value ([1]; protein EIF3I, HeLa) is on record?
A: The value was 0.91.

Q: What about the “fold changes relative to vehicle control” value ([2]; HeLa, protein SEC61A1) of the same compound?
A: The value was 1.01.

Q: And the “fold changes relative to vehicle control” value ([3]; protein CTTN, HeLa)?
A: The value was 1.18.

Q: And the “fold changes relative to vehicle control” value ([4]; HeLa, protein SEC23B)?
A: Its value is 0.93.

Q: What about the “fold changes relative to vehicle control” value ([5]; protein VCL, HeLa) of the same compound?
A: The value was 1.8.

Q: What about the “fold changes relative to vehicle control” value ([6]; HeLa, protein HEXB) of the same compound?
A: The value was 1.06.

Q: What does the source list for `Nc1nc2cccc(-c3ccccc3)c2n1Cc1ccc(Cl)c(Cl)c1` [compound 3]?
A: fold changes relative to vehicle control ([1]; protein EIF3I, HeLa): 1.02; fold changes relative to vehicle control ([2]; HeLa, protein SEC61A1): 1; fold changes relative to vehicle control ([3]; protein CTTN, HeLa): 0.94; fold changes relative to vehicle control ([4]; HeLa, protein SEC23B): 1.04; fold changes relative to vehicle control ([5]; protein VCL, HeLa): 0.99; fold changes relative to vehicle control ([6]; HeLa, protein HEXB): 0.93

Q: What does the source list for `NCCOCCOCC(=O)Nc1nc2ncc(CNc3ccc(C(=O)NC(CCC(=O)O)C(=O)O)cc3)nc2c(=O)[nH]1` (stereo not drawn) [compound 6]?
A: fold changes relative to vehicle control ([1]; HeLa, captured protein EIF3I): 0.98; fold changes relative to vehicle control ([2]; HeLa, protein SEC61A1): 1.03; fold changes relative to vehicle control ([3]; HeLa, captured protein CTTN): 1.06; fold changes relative to vehicle control ([4]; HeLa, protein SEC23B): 0.88; fold changes relative to vehicle control ([5]; protein VCL, HeLa): 1.21; fold changes relative to vehicle control ([6]; HeLa, protein HEXB): 1.05

Q: With `NCCCNc1ccc(C(=O)NC(CCC(=O)O)C(=O)O)cc1` (stereo not drawn) [compound 7] as the compound, how does the “fold changes relative to vehicle control” value ([1]; HeLa, captured protein EIF3I) read?
A: The value was 0.97.

Q: And the “fold changes relative to vehicle control” value ([2]; HeLa, protein SEC61A1)?
A: The value was 1.06.

Q: And the “fold changes relative to vehicle control” value ([3]; HeLa, captured protein CTTN)?
A: Its value is 0.96.

Q: And the “fold changes relative to vehicle control” value ([4]; HeLa, protein SEC23B)?
A: Its value is 1.09.

Q: And the “fold changes relative to vehicle control” value ([5]; protein VCL, HeLa)?
A: Its value is 0.96.

Q: What about the “fold changes relative to vehicle control” value ([6]; HeLa, protein HEXB) of the same compound?
A: Its value is 1.06.

— PMC6199744, “Development of Chemical Proteomics for the Folateome and Analysis of the Kinetoplastid Folateome” (ACS Infectious Diseases, 2018)
